Consider one molecule from US20080306076A1, “MODULATION OF CHEMOSENSORY RECEPTORS AND LIGANDS ASSOCIATED THEREWITH” (SENOMYX, INC., priority 2007, published 2008).

This test has as its target T1, hT1R1 H308A (Homo sapiens, UniProt Q7RTX1, H308A).
T1 construct: expressed in transfected cells; host or cells: HEK293, transient transfection
T1 sequence (Q7RTX1 21-841 H308A): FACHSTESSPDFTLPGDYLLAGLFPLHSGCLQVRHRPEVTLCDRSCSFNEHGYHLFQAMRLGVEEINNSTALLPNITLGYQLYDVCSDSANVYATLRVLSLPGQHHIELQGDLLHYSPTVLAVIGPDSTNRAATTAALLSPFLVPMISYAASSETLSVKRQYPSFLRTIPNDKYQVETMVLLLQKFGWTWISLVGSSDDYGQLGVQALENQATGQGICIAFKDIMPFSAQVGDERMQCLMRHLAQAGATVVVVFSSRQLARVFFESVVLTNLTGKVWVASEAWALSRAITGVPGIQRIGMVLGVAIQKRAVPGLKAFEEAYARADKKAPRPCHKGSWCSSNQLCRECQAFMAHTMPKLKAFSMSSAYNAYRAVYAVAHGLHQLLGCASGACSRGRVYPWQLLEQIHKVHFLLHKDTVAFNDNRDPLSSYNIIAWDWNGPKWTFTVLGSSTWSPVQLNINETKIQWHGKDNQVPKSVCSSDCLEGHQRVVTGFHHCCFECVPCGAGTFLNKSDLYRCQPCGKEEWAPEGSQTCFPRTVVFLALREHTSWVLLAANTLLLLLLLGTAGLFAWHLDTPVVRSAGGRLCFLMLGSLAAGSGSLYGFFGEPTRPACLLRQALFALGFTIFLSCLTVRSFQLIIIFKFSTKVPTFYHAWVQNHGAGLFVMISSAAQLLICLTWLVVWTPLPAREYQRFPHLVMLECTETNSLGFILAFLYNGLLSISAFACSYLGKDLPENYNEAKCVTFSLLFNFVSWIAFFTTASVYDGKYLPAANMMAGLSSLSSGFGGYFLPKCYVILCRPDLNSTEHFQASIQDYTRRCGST
T1 sequence (Q923K1 21-858 partner): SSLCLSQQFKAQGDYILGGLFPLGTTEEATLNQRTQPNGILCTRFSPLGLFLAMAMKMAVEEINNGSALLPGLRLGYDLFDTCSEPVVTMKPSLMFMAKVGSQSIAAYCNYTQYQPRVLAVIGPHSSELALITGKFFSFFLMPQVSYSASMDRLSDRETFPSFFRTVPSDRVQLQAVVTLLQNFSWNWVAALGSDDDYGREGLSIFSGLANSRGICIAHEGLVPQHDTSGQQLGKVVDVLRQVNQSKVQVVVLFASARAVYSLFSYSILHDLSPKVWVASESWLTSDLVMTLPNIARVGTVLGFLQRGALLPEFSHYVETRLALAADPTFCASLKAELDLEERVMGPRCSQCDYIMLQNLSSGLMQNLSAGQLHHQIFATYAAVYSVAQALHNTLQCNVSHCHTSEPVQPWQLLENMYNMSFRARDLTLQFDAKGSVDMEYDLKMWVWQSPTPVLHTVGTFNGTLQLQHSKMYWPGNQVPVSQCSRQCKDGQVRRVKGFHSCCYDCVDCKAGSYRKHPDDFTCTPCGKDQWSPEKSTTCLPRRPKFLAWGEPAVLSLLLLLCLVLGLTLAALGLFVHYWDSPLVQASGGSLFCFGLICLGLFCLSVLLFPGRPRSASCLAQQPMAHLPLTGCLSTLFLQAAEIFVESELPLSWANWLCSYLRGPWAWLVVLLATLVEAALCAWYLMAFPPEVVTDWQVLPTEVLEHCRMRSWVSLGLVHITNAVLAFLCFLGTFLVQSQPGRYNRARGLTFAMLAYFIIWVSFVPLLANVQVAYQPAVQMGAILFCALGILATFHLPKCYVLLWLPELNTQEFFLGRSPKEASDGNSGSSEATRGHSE
Put plainly: Mutagenesis study, hT1R1 mutant H308A. It is filed as cell-based. The note with it: H308 mutation. The text has this:
In order to further define the interaction sites of umami stimuli, we performed site-directed mutagenesis on human T1R1 VFT. The mutagenesis was done using the routine PCR-based method. […] were transiently transfected into HEK293 cell together with the rat T1R3 wild type cDNA, and the transfected cells were characterized using an automated FLIPR machine or a calcium imaging system as described in our previous patent applications.

Take `Nc1nc2c(ncn2[C@@H]2O[C@H](COP(=O)(O)O)[C@@H](O)[C@H]2O)c(=O)[nH]1` [GMP, guanosine-5′-monophosphate]: the “enhancement activity of GMP” value is reported as “similarly affected”.
